Source: the NIST ThermoML archive (doi:10.1021/je300610y)

What was measured:
[1] = Crystal; for vapor or sublimation pressure: Transpiration method; for Normal melting temperature: DTA
[2] = Molar enthalpy of transition or fusion; conditions: Crystal; DSC

FC(F)(F)c1ccc(NC2=NCCC3(CCCCC3)S2)cc1
[1]
Conditions | vapor or sublimation pressure [kPa]
384.15 K | 4.95e-05
385.15 K | 5.32e-05
386.15 K | 5.53e-05
387.15 K | 6.2e-05
389.15 K | 7.35e-05
390.15 K | 8.5e-05
392.15 K | 9.41e-05
393.15 K | 0.0001076
394.15 K | 0.0001185
395.15 K | 0.0001376
397.15 K | 0.0001497
398.15 K | 0.0001884
399.15 K | 0.0002215
401.15 K | 0.0002241
402.15 K | 0.0002762
403.15 K | 0.0002858

Conditions | Molar enthalpy of transition or fusion [kcal/mol] | Normal melting temperature [°C]
[1] | – | 149.7
[2] | 7.86 | –

c1ccc(NC2=NCCC3(CCCCC3)S2)cc1 [N-phenyl-1-thia-3-azaspiro[5.5]undec-2-en-2-amine]
[1]
Conditions | vapor or sublimation pressure [kPa]
342.15 K | 6.9e-06
343.15 K | 8.2e-06
345.15 K | 1.01e-05
347.15 K | 1.32e-05
349.15 K | 1.47e-05
350.15 K | 1.8e-05
352.15 K | 2.39e-05
355.15 K | 3.14e-05
357.15 K | 4.42e-05
360.15 K | 6.22e-05
361.15 K | 6.34e-05
362.15 K | 9.1e-05
365.15 K | 0.0001035
367.15 K | 0.0001298
368.15 K | 0.0001351
369.15 K | 0.0001541

Conditions | Molar enthalpy of transition or fusion [kcal/mol] | Normal melting temperature [°C]
[1] | – | 113.4
[2] | 5.16 | –

Cc1ccc(NC2=NCCC3(CCCCC3)S2)cc1 [N-(4-methylphenyl)-1-thia-3-azaspiro[5.5]undec-2-en-2-amine]
[1]
Conditions | vapor or sublimation pressure [kPa]
353.15 K | 9.4e-06
355.15 K | 1.29e-05
356.15 K | 1.58e-05
360.15 K | 2.24e-05
363.15 K | 3.02e-05
365.15 K | 3.66e-05
366.15 K | 4.54e-05
369.15 K | 6.73e-05
372.15 K | 9.76e-05
375.15 K | 0.0001314
376.15 K | 0.0001366
377.15 K | 0.0001547
378.15 K | 0.0001852
380.15 K | 0.0002336
384.15 K | 0.0003508

Conditions | Molar enthalpy of transition or fusion [kcal/mol] | Normal melting temperature [°C]
[1] | – | 128.1
[2] | 7.1 | –

CCc1ccc(NC2=NCCC3(CCCCC3)S2)cc1 [N-(4-ethylphenyl)-1-thia-3-azaspiro[5.5]undec-2-en-2-amine]
[1]
Conditions | vapor or sublimation pressure [kPa]
366.15 K | 3.45e-05
367.15 K | 4.16e-05
370.15 K | 5.31e-05
372.15 K | 7.08e-05
374.15 K | 8.22e-05
376.15 K | 0.0001151
377.15 K | 0.0001434
380.15 K | 0.0001583
382.15 K | 0.0002134
384.15 K | 0.0002567
386.15 K | 0.000327
387.15 K | 0.0003632
390.15 K | 0.0004631
392.15 K | 0.000642
394.15 K | 0.0007981

Conditions | Molar enthalpy of transition or fusion [kcal/mol] | Normal melting temperature [°C]
[1] | – | 139.4
[2] | 10.2 | –

Brc1ccc(NC2=NCCC3(CCCCC3)S2)cc1 [N-(4-bromophenyl)-1-thia-3-azaspiro[5.5]undec-2-en-2-amine]
[1]
Conditions | vapor or sublimation pressure [kPa]
374.15 K | 5.7e-06
375.15 K | 7.6e-06
378.15 K | 1.05e-05
380.15 K | 1.35e-05
385.15 K | 1.92e-05
388.15 K | 3.2e-05
391.15 K | 4.17e-05
393.15 K | 5.5e-05
395.15 K | 6.74e-05
397.15 K | 7.99e-05
399.15 K | 9.5e-05
401.15 K | 0.0001235
403.15 K | 0.0001454
405.15 K | 0.0001813
406.15 K | 0.0002145
409.15 K | 0.000277
411.15 K | 0.0003482

Conditions | Molar enthalpy of transition or fusion [kcal/mol] | Normal melting temperature [°C]
[1] | – | 175.2
[2] | 10.6 | –

Clc1ccc(NC2=NCCC3(CCCCC3)S2)cc1 [N-(4-chlorophenyl)-1-thia-3-azaspiro[5.5]undec-2-en-2-amine]
[1]
Conditions | vapor or sublimation pressure [kPa]
370.15 K | 1.08e-05
372.15 K | 1.28e-05
373.15 K | 1.3e-05
376.15 K | 2e-05
377.15 K | 2.79e-05
380.15 K | 3.58e-05
383.15 K | 5.41e-05
384.15 K | 7.05e-05
387.15 K | 7.69e-05
389.15 K | 8.96e-05
391.15 K | 0.0001171
393.15 K | 0.0001487
395.15 K | 0.0001855
398.15 K | 0.0002176
400.15 K | 0.0002803
403.15 K | 0.0003898

Conditions | Molar enthalpy of transition or fusion [kcal/mol] | Normal melting temperature [°C]
[1] | – | 162.6
[2] | 10 | –

CC(C)c1ccc(NC2=NCCC3(CCCCC3)S2)cc1
[1]
Conditions | vapor or sublimation pressure [kPa]
365.15 K | 1.98e-05
366.15 K | 2.34e-05
369.15 K | 3.21e-05
371.15 K | 3.7e-05
373.15 K | 4.74e-05
375.15 K | 5.94e-05
376.15 K | 7.14e-05
379.15 K | 8.3e-05
381.15 K | 0.0001048
383.15 K | 0.0001249
385.15 K | 0.0001533
386.15 K | 0.0001933
388.15 K | 0.0001988
390.15 K | 0.0002603
393.15 K | 0.0003364

Conditions | Molar enthalpy of transition or fusion [kcal/mol] | Normal melting temperature [°C]
[1] | – | 139.6
[2] | 6.98 | –

Cc1ccc(NC2=NCCC3(CCCCC3)S2)cc1Cl
[1]
Conditions | vapor or sublimation pressure [kPa]
385.15 K | 7.9e-06
386.15 K | 8.8e-06
387.15 K | 1.13e-05
388.15 K | 1.22e-05
389.15 K | 1.29e-05
391.15 K | 1.59e-05
393.15 K | 1.79e-05
395.15 K | 2.05e-05
396.15 K | 2.29e-05
397.15 K | 2.95e-05
399.15 K | 3.31e-05
401.15 K | 3.4e-05
402.15 K | 3.75e-05
404.15 K | 4.55e-05
405.7 K | 5.09e-05
406.4 K | 5.34e-05
407.3 K | 6.09e-05

Conditions | Molar enthalpy of transition or fusion [kcal/mol] | Normal melting temperature [°C]
[1] | – | 149.2
[2] | 7.93 | –
